The values that follow come from PMC9884962, “Pigments of aminophenoxazinones and viridomycins produced by termite-associated Streptomyces tanashiensis BYF-112” (Frontiers in Microbiology, 2023).

Holding throughout (format): cell-based
Series [1] relates to human gastric cancer cell line (MGC-803). In words: MTT cytotoxicity assay, MGC-803. Particulars: 48 h exposure, read-out: Cytotoxic activity IC50, MGC-803. As to the method:
(§1) The metabolites 1–4 were evaluated for their cytotoxic activities against human malignant melanoma cell line (A375), human ovarian cancer cell line (SKOV-3), human breast cancer cell line (MDA-MB231), human gastric cancer cell line (MGC-803) and human normal cell line (L-02) with the MTT method ([Wang et al., 2022]). The cell lines were maintained in Dulbecco’s modified eagle medium (DMEM) supplemented with 10% fetal bovine serum (FBS) along with 1% penicillin and streptomycin. Cells were grown at 37°C in an atmosphere with 5% CO2 and then seeded in 96-well plates and permitted to grow for 20 h. Then tested compounds at preset concentrations were added. The 3-(4,5-dimethylthiazol-2-yl)-2,5-diphenyltetrazolium bromide (MTT; 20 μl, 5 mg/ml) was added into each well after a 48 h exposure period. After an additional 4 h further incubation, the medium was replaced by DMSO (150 μl), then shaking the plates for 15 min. The absorbance at 490 nm were recorded. The percentage of cell viability was calculated using the following formula: Cell viability (%) = the OD of tested group/the OD of CK × 100%. Finally, IC50 values were determined by EXCEL. The azithromycin was used as positive control.
On the technique in general: Formazan colour is commonly taken as a measure of viable cells.

Series [2] concerns human breast cancer cell line (MDA-MB231). Kind of series: MTT cytotoxicity assay, MDA-231. Particulars: MDA-MB-231, 48 h exposure, read-out: Cytotoxic activity IC50, MDA-231. As to the method:
as §1

Series [3] can be described thus: MTT cytotoxicity assay, L-02. The note with it: human, L-02 normal liver cells, 48 h exposure, normal cell line, read-out: Cytotoxic activity IC50, L-02. As to the method:
as §1

Series [4] deals with human ovarian cancer cell line (SKOV-3). In words: MTT cytotoxicity assay, SKOV-3. The note with it: SK-OV-3, 48 h exposure, read-out: Cytotoxic activity IC50, SKOV-3. As to the method: as §1
Series [5] relates to human malignant melanoma cell line (A375). Kind of series: MTT cytotoxicity assay, A375. Particulars: A-375, 48 h exposure, read-out: Cytotoxic activity IC50, A375. Here is the method:
as §1

Series [6] deals with methicillin-resistant S. aureus (MRSA, SA2). In words: Filter paper disc diffusion, MRSA. Particulars: 30 μg/filter paper (6 mm disc), 37°C, 12 h, dash = No inhibited. As to the method: (§2) The Staphylococcus aureus (ATCC6538), methicillin-resistant S. aureus (MRSA, SA2), Escherichia coli (ATCC8739) and Micrococcus tetragenus (ATCC35098) donated by Professor Ting Xue from Anhui Agricultural university were used as a target pathogen for the examination of antibacterial activity of the metabolites. The disc diffusion ([Özogul et al., 2022]) and minimum inhibitory concentrations (MICs; [Cui et al., 2022]) methods were performed to evaluate the antibacterial activities of the new natural metabolites 1, 2, and 4. Filter paper disks (6 mm) with metabolite dissolved in DMSO in a concentration (30 μg/filter paper) were added to the culture medium, and the plates were incubated at 37°C for 12 h. Filter papers with DMSO and levofloxacin were set as negative and positive controls, respectively. All experiments were performed in triplicate, and data were shown as mean values standard deviation. And the MICs of the compounds were determined by the method as we previously described ([Cui et al., 2022]).
(A growth-free zone around the sample is the usual read-out of agar diffusion tests.)

In series [7] the test system is Staphylococcus aureus (ATCC6538). Kind of series: Filter paper disc diffusion, S. aureus. The note with it: 30 μg/filter paper (6 mm disc), 37°C, 12 h, dash = No inhibited. As to the method: as §2
The subject of series [8] is Escherichia coli (ATCC8739). Kind of series: Filter paper disc diffusion, E. coli. Particulars: 30 μg/filter paper (6 mm disc), 37°C, 12 h; dash = No inhibited. Here is the method:
as §2

Series [9] relates to methicillin-resistant S. aureus (MRSA, SA2). Kind of series: Minimum inhibitory concentration assay, MRSA. As to the method: as §2
Series [10] deals with human cancer cell lines (A375, SKOV-3, MDA-231 and MGC-803). Kind of series: MTT cytotoxicity assay, tested human cancer cell lines together. Particulars: range over A375, SKOV-3, MDA-231 and MGC-803, read-out: IC50 values against the tested human cancer cell lines. Here is the method: as §1
Series [11] concerns Micrococcus tetragenus (ATCC35098). Kind of series: Filter paper disc diffusion, M. tetragenus. The note with it: 30 μg/filter paper (6 mm disc), 37°C, 12 h, dash = No inhibited. As to the method:
as §2

Series [12] concerns Escherichia coli (ATCC8739). In words: Minimum inhibitory concentration assay, E. coli. As to the method: as §2
The test system of series [13] is Staphylococcus aureus (ATCC6538). In words: Minimum inhibitory concentration assay, S. aureus. The note with it: for MIC: Staphylococcus aureus, ATCC6538. Here is the method:
as §2

Series [14] has as its system Micrococcus tetragenus (ATCC35098). Kind of series: Minimum inhibitory concentration assay, M. tetragenus. Particulars: for MIC: Micrococcus, ATCC35098. As to the method:
as §2

Setting [15] is: Staphylococcus aureus, MRSA; read-out: Minimum inhibitory concentration (MIC), MRSA.

Broadly, the IC50 is the point on the concentration scale where inhibition reaches its midpoint.

Converted amounts (≈) assume the structure as drawn. “And” between values parts separate entries of the source, which are not always exact repeats. Equal values may be shown once. Read-outs that look alike come from different tables or passages of the source.

`CC[C@H]1OC(=O)[C@H](C)[C@@H](O[C@H]2C[C@@](C)(OC)[C@@H](O)[C@H](C)O2)[C@H](C)[C@@H](O[C@@H]2O[C@H](C)C[C@H](N(C)C)[C@H]2O)[C@](C)(O)C[C@@H](C)CN(C)[C@H](C)[C@@H](O)[C@]1(C)O` [Azithromycin, azithromycin, reference compound]: the IC50 came to 1.57 ± 0.03 µM in series [1], 4.03 ± 0.43 µM in series [2], 0.41 ± 0.12 µM in [4] and 0.79 ± 0.13 µM in series [5]. In series [3], the IC50 at 48 h worked out at 7.34 ± 1.15 µM.

`Nc1cc2nc3cc(CO)ccc3oc-2cc1=O` [Compound 1, 2-amino-8-hydroxymethyl-3H-phenoxazin-3-one]: the IC50 was 50.2 ± 7.01 µM in series [1]; 55.9 ± 7.47 µM in [2]; 22.3 to 67.7 µM in [10]; 22.3 ± 3.78 µM in [4]; 67.7 ± 4.31 µM in series [5]. In series [6], the “Zone of inhibition (ZOI), MRSA” value is 15.3 mm and 15.3 ± 0.1 mm. Besides, the “Zone of inhibition (ZOI), Staphylococcus aureus” value in [7] was 17.2 mm and 17.2 ± 0.2 mm. In addition, the “Zone of inhibition (ZOI), Escherichia coli” value in [8] is “–^b”. Also, in series [3], the IC50 at 48 h stood at 72 ± 7.22 µM. Also, the MIC in series [9] (setting [15]) was 25 µg/mL (≈ 103 µM); in series [12], greater than 100 µg/mL; in [13], 12.5 µg/mL (≈ 51.6 µM); in [14], 12.5 µg/mL (≈ 51.6 µM). Also, the “Zone of inhibition (ZOI), Micrococcus tetragenus” value in series [11] is 15.3 mm and 15. mm and 15.3 ± 0.2 mm. Besides, the “Minimum inhibitory concentration (MIC), Staphylococcus aureus” value in series [13] turned out to be 12.5 µg/mL (≈ 51.6 µM).

As to `CC(=O)OCc1ccc2oc3cc(=O)c(N)cc-3nc2c1` [Compound 2, exfoliazone B], the IC50 is 69.9 ± 1.94 µM in [1], greater than 100 µM in [2], 75.8 ± 5.77 µM in series [4] and greater than 100 µM in series [5]. Further, in series [6], the “Zone of inhibition (ZOI), MRSA” value is reported as “–^b”. In addition, the “Zone of inhibition (ZOI), Staphylococcus aureus” value in series [7] was “–^b”. For the same molecule, the “Zone of inhibition (ZOI), Escherichia coli” value in series [8] is listed as “–^b”. For the same molecule, the IC50 at 48 h in series [3] was greater than 100 µM. The MIC was greater than 100 µg/mL in [9] (setting [15]), greater than 100 µg/mL in series [12], greater than 100 µg/mL in [13] and 50 µg/mL (≈ 176 µM) in series [14]. Also, the “Zone of inhibition (ZOI), Micrococcus tetragenus” value in series [11] is on record as “–^b”.

Take `CC(=O)Nc1cc(CNc2cc3nc4cc(CO)ccc4oc-3cc2=O)ccc1O` [Compound 3, exfoliazone C]: the IC50 in series [1], in series [2], in series [4] and in series [5] was greater than 100 µM throughout. In addition, the IC50 at 48 h in series [3] is greater than 100 µM.

On to `CC(=O)OCc1ccc2oc3cc(=O)c(NC4OC(CO)C(O)C(O)C4O)cc-3nc2c1` (centres unmarked) [Compound 4, exfoliazoneglycoside], for which the IC50 in [1], in series [2], in series [4] and in series [5] was greater than 100 µM in each case. Further, the “Zone of inhibition (ZOI), MRSA” value in series [6] is “–^b”. Moreover, in [7], the “Zone of inhibition (ZOI), Staphylococcus aureus” value is on record as “–^b”. Further, the “Zone of inhibition (ZOI), Escherichia coli” value in series [8] is given as “–^b”. Besides, the IC50 at 48 h in [3] was greater than 100 µM. Moreover, the MIC in series [9] (setting [15]), in series [12], in series [13] and in series [14] was greater than 100 µg/mL throughout. In series [11], the “Zone of inhibition (ZOI), Micrococcus tetragenus” value was “–^b”.

As for `C[C@H]1COc2c(N3CCN(C)CC3)c(F)cc3c(=O)c(C(=O)O)cn1c23` [Levofloxacin, levofloxacin, reference compound], the “Zone of inhibition (ZOI), MRSA” value in [6] is 15.2 ± 0.1 mm; in series [6] (listed as levofloxacin), 15.2 mm. Further, the entries for the “Zone of inhibition (ZOI), Staphylococcus aureus” value in [7] and in series [7] (listed as levofloxacin) were 28.9 ± 0.8 mm and 28.9 mm, respectively. In addition, the “Zone of inhibition (ZOI), Escherichia coli” value in [8] stood at 33.0 ± 1.0 mm. Also, the MIC in series [9] (Staphylococcus aureus, MRSA, read-out: Minimum inhibitory concentration (MIC), MRSA) is 6.25 µg/mL (≈ 17.3 µM); in series [12], 3.13 µg/mL (≈ 8.66 µM); in series [13] it was 3.13 µg/mL (≈ 8.66 µM); in [14] it was 3.13 µg/mL (≈ 8.66 µM). Further, the entries for the “Zone of inhibition (ZOI), Micrococcus tetragenus” value in series [11] and in [11] (listed as levofloxacin) were 24.8 ± 0.6 mm and 24.8 mm, respectively.

For gentamycin sulfate [reference compound], the “Minimum inhibitory concentration (MIC), MRSA” value in series [9] amounted to 6.25 µg/mL. For the same molecule, in series [13], the “Minimum inhibitory concentration (MIC), Staphylococcus aureus” value is 3.13 µg/mL. Also, the “Minimum inhibitory concentration (MIC), Micrococcus tetragenus” value in [14] turned out to be 3.13 µg/mL.
